Earlier results as cited in patent US20070253995A1, “Drug Delivery Methods and Devices for Treating Stress Urinary Incontinence” (Medtronic, Inc., priority 2006, published 2007).

System: women with stress urinary incontinence
Details: oral formulation

Compound: CNCC[C@H](Oc1cccc2ccccc12)c1cccs1 [duloxetine]
- time for side effects to disappear after therapy initiation: 1 to 4 weeks
- efficacy in treating stress urinary incontinence (Phase III clinical trial, women): effective
- side effects (mostly centrally mediated: nausea, headache, insomnia, dry mouth, dizziness, fatigue) (some patients): significant side effects in some patients
